This is an account of results in publication PMC3412939 (Biochimica et biophysica acta, 2012).

The nature of data set [1]: Blue shift of tryptophan emission spectrum on membrane binding. The data set is classed as physicochemical. To be noted: PC/PG SUV, relative to spectrum without lipid; excitation 280 nm; mean ± SE.
Data set [2] is described as follows: Acrylamide quenching of tryptophan fluorescence. The data set is classed as physicochemical. Particulars: 100 μM PC/PG (7:3) SUV, cholesterol-free.

Take wRVIRLVRVFRIFKLSRH [W-S4]: the “Blue shift of tryptophan emission at saturation” value in data set [1] is recorded as 13 ± 2 nm. The “Ratio of quenching constants KSV(lipid)/KSV(no lipid)” value in data set [2] came to 0.41 ± 0.03.
